This is an account of results in publication PMC11659602, “Discovering covalent cyclic peptide inhibitors of peptidyl arginine deiminase 4 (PADI4) using mRNA-display with a genetically encoded electrophilic warhead” (Communications Chemistry, 2024).

What is called IC50 is the concentration that inhibits the measured activity by half. Read a high IC50 as a need for much substance.

Several values for one entry are separate records, joined by “and”; a condition that tells them apart may be missing. Identical values can stand only once. Where a SMILES comes first, the peptide text is derived from it. Bridges are numbered along the chain shown (N, C = ends). [ ]: non-standard residue; d: D form. Orn(fluoroacetimidoyl) = N=C(CF)NCCC[C@H](N)C(=O)O

One assay has as its target T1, PADI1 (Homo sapiens, UniProt Q9ULC6).
T1 construct: human PADI1 (residue 1-663); made in house; host or cells: E. coli NiCo21(DE3)
T1 sequence (Q9ULC6 1-663): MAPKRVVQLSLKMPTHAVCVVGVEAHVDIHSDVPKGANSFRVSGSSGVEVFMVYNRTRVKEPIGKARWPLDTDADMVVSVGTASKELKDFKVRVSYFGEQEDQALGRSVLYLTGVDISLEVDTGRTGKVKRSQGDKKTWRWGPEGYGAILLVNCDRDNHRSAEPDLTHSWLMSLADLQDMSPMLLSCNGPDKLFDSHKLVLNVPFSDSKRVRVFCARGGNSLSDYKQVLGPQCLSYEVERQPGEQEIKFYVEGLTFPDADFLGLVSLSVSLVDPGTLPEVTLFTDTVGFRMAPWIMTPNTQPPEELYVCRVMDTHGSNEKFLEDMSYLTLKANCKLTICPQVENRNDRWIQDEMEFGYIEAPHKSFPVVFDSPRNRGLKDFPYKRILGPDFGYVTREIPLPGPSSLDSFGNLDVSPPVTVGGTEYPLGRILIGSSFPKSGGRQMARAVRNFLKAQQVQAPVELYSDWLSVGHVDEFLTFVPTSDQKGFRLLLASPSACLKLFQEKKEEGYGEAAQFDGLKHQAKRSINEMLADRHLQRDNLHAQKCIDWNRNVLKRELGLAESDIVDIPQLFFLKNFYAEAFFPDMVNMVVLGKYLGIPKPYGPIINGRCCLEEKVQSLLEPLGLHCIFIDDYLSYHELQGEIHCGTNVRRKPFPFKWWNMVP
As to the kind of experiment: Incubation time-dependent COLDER assay, selectivity. The assay is classed as biochemical. The conditions noted are these: for PADI1 activity normalised to 0.1% DMSO: quenched after 60 mins. The procedure:
(§1) To determine KI and kinact of covalent peptide inhibitors, COLDER assays were used[52]. Peptide dilutions were prepared using 5-fold dilutions from 500 µM and 300 µM to 0.8 µM and 2.4 µM, respectively, at 1% DMSO in COLDER buffer (50 mM HEPES, 150 mM NaCl and 2 mM DTT, pH 7.5). The 9 peptide dilutions were added to a 96-well plate, alongside a 1% DMSO control. An equal volume of 10 mM BAEE was added to each well and the solution was homogenised by pipette mixing. This was mixed with 50 nM His-PADI4, 0.6 mg/mL BSA and 10 mM CaCl2, in COLDER buffer, to bring the final volume to 300 µL in each well. Alternatively, His-PAD1 (100 nM) /His-PADI2 (100 nM) /His-PADI3 (250 nM) were used. For assays with PADI1 and PADI3, 10 mM N^α-benzoyl-L-arginine methyl […] (BAME) was used as the substrate instead of BAEE[48],[58],[59]. At 15-minute intervals, for 5 timepoints, 50 µL of solution was taken from each well and quenched with 10 µL EDTA (300 mM). 200 µL of COLDER solution containing 20 mM diacetyl monoxime/2,3-butanedione monoxime (Merck), 0.5 mM thiosemicarbazide (Acros Organics), 2.25 M H3PO4, 4.5 M H2SO4 and 1.5 mM NH4Fe(SO4)2.12H2O was added to each well. Samples were incubated for 20 min at 95 °C before measuring absorbance at 540 nm on a CLARIOstar Plus (BMG LABTECH). IC50 values for each time point were determined using non-linear regression with GraphPad Prism. Incubation time–dependent potency IC50(t) against incubation time was fitted to the Krippendorff equation (below) to determine KI and kinact using a Python script[53],[59]. […] IC50t=KI1+S/KM⋅2−2e^−ηIC50⋅kinact⋅t/ηIC50⋅kinact⋅t−1 WhereηIC50=IC50t/KI1+S/KM+IC50t

The next assay addresses T2, PADI3 (Homo sapiens, UniProt Q9ULW8).
T2 construct: PADI3 (residue 1-664); made in house; host or cells: E. coli NiCo21(DE3)
T2 sequence (Q9ULW8 1-664): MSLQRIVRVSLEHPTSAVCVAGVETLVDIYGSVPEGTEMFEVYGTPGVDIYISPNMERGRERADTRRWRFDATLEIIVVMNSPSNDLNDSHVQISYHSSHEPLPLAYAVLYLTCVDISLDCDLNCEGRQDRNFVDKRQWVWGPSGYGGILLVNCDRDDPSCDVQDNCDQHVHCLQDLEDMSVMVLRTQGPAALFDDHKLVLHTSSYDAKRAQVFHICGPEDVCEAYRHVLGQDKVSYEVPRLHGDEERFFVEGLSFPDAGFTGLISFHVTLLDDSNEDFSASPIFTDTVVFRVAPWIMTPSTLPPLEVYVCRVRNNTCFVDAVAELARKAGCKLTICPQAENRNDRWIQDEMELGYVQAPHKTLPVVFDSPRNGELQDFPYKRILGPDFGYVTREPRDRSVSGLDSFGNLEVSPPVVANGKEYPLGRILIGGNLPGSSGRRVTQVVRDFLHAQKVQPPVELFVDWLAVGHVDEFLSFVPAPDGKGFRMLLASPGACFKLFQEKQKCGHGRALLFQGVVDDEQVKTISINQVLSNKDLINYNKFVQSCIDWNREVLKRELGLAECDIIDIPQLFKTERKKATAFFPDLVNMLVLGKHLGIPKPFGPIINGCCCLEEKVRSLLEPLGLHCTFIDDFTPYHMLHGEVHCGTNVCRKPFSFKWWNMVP
The assay is described as above. The format is biochemical. Particulars: for PADI3 activity normalised to 0.1% DMSO: quenched after 60 mins; for selectivity for PADI4 over PADI3: COLDER; for PADI3 activity, normalised (Figure S11c): same values as column 60 of Figure S11b. The procedure: as §1

In the case of `CC(C)C[C@@H]1NC(=O)[C@H](CCCCN)NC(=O)[C@H](CO)NC(=O)[C@H](CO)NC(=O)[C@H](Cc2ccc(O)cc2)NC(=O)[C@H](Cc2c[nH]cn2)NC(=O)[C@H](CCCNC(=N)CF)NC(=O)[C@H](CC(=O)O)NC(=O)[C@H](CC(C)C)NC(=O)[C@@H](Cc2ccc(O)cc2)NC(=O)CSC[C@@H](C(=O)NCC(N)=O)NC(=O)[C@H](Cc2ccc(O)cc2)NC1=O` [cP4_15, yLD(2)HYSSKLYCG] ({CH2CO}-[dY]LD[Orn(fluoroacetimidoyl)]HYSSKLYCG-NH2; thioether N-12), the “PADI1 activity normalised to 0.1% DMSO” value at PADI1 (0.08 µM) was 100.799 and 102.269; at PADI1 (0.24 µM), 99.0011 and 78.928; at PADI1 (0.4 µM), 101.598 and 103.89; on PADI1 (1.2 µM) it was 101.532 and 99.3516; on PADI1 (2 µM), 105.527 and 101.88; on PADI1 (6 µM), 100.999 and 97.3417. Further, the “PADI1 activity normalised to 0.1% DMSO” value on PADI1 (10 µM) was 97.1365 and 102.594; at PADI1 (30 µM) it was 94.4062 and 95.3966; at PADI1 (50 µM) it was 83.818 and 84.4392. Also, the “PADI3 activity normalised to 0.1% DMSO” value is 106.942 and 103.941 at PADI3 (0.08 µM); 100.503 and 99.2995 at PADI3 (0.24 µM); 100.805 and 104.641 at PADI3 (0.4 µM); 98.1891 and 97.8109 on PADI3 (1.2 µM); 82.1932 and 92.0315 at PADI3 (2 µM); 75.5533 and 73.7303 on PADI3 (6 µM). For the same compound, the “PADI3 activity normalised to 0.1% DMSO” value at PADI3 (10 µM) is 66.499 and 67.8634; at PADI3 (30 µM) it was 30.8853 and 30.3853; at PADI3 (50 µM), 18.8129 and 17.5131. Further, the IC50 on PADI3 (60-minute time point, no preincubation) is approximately 40 µM. Further, the “selectivity for PADI4 over PADI3” value on PADI3 was “Approximately 45 fold”.
As for `N=C(N)NCCC[C@@H]1NC(=O)[C@H](CCCNC(=N)CF)NC(=O)[C@H](CC(=O)O)NC(=O)[C@H](Cc2ccc(O)cc2)NC(=O)[C@H](CCCCN)NC(=O)[C@H](CO)NC(=O)[C@@H](Cc2ccc(O)cc2)NC(=O)CSC[C@@H](C(=O)NCC(N)=O)NC(=O)[C@H](CC(=O)O)NC(=O)[C@H](CCCNC(=N)N)NC(=O)[C@@H]2CCCN2C(=O)[C@H](CO)NC1=O` [cP4_4, ySKYD(2)RSPRDCG] ({CH2CO}-[dY]SKYD[Orn(fluoroacetimidoyl)]RSPRDCG-NH2; thioether N-12), the “PADI1 activity, normalised (Figure S11c)” value on PADI1 (cP4_4 0.08 µM) is 100 and 102.598; on PADI1 (cP4_4 0.24 µM), 93.9237 and 90.941; on PADI1 (cP4_4 0.4 µM) it was 98.9277 and 105.899; on PADI1 (cP4_4 1.2 µM), 98.9873 and 104.073; on PADI1 (cP4_4 2 µM) it was 100.477 and 105.618; at PADI1 (cP4_4 6 µM), 94.7578 and 98.4551. Besides, the “PADI1 activity, normalised (Figure S11c)” value on PADI1 (cP4_4 10 µM) was 89.6942 and 96.559; at PADI1 (cP4_4 30 µM) it was 69.6188 and 76.5449; on PADI1 (cP4_4 50 µM) it was 54.4281 and 69.382. Moreover, the “selectivity for PADI4 over PADI3” value on PADI3 was 8 fold. Further, the “PADI3 activity, normalised (Figure S11c)” value was 98.438 and 99.5208 and 99.723 on PADI3 (cP4_4 0.08 µM); 84.0122 and 99.425 and 100.739 at PADI3 (cP4_4 0.24 µM); 91.6386 and 95.0168 and 95.5679 on PADI3 (cP4_4 0.4 µM); 73.8132 and 78.438 and 79.5014 at PADI3 (cP4_4 1.2 µM); 66.9219 and 70.5798 on PADI3 (cP4_4 2 µM); 34.487 and 31.5764 and 37.6731 at PADI3 (cP4_4 6 µM). Further, the “PADI3 activity, normalised (Figure S11c)” value at PADI3 (cP4_4 10 µM) is 25.1148 and 25.0599 and 28.7165; on PADI3 (cP4_4 30 µM), 13.6294 and 7.139 and 10.988; at PADI3 (cP4_4 50 µM) it was 9.311 and 5.7978 and 6.279.
